Test results published in patent US20040023295A1, “Methods and systems for analyzing complex biological systems” (priority 2001, published 2004).

Tests used:
[1] = tested on: Arabidopsis thaliana plants; experiment: Phenotypic analysis of herbicide-treated Arabidopsis plants (SOA1); format: in vivo; conditions: for characteristic symptoms (morphological phenotype): herbicide-treated Arabidopsis; for Dev. leafWidth: numeric values standardized to the average response for the mock treated tissues; for Dev. leafCurling / Dev. leafTwisting / Dev. matureLeafAnthocyanins / Dev. matureLeafChlorosis / Dev. matureLeafNecrosis / Dev. newLeafAnthocyanins / Dev. newLeafChlorosis / Dev. newLeafNecrosis / Dev. pointedLeaves: standardized to mock treated; for Symptom Class: three-week-old Arabidopsis sprayed with herbicide, phenotype classes of FIG. 12; for Dev. tMic: time for full range of symptoms at MIC, coded score
Arabidopsis thaliana [2] = experiment: Gene expression profiling of sprayed Arabidopsis (MOA1); format: in vivo; conditions: for No. of Lethal Genes Altered: regulated genes identified as essential genes in internal database
Arabidopsis thaliana [3] = experiment: Biochemical (metabolite) profiling by LC-MS and GC-MS of sprayed Arabidopsis (MOA1); conditions: within one hour after spraying
[4] = tested on: Saccharomyces cerevisiae wild type strain BY4743; experiment: Yeast azole drug experiment AF1: metabolite analysis (GC-MS, LC-MS); format: cell-based
[5] = 1 hr, p < 0.5, arrays containing 22,000 Arabidopsis genes

CSc1nnc(C(C)(C)C)c(=O)n1N [Metribuzin]
characteristic symptoms (morphological phenotype) [1]: rapid and widespread leaf necrosis

COC(=O)c1cc(Oc2ccc(Cl)cc2Cl)ccc1[N+](=O)[O-] [Bifenox]
characteristic symptoms (morphological phenotype) [1]: Necrotic leaf flecks

CN(C)C(=O)Nc1ccc(Cl)c(Cl)c1 [Diuron]
characteristic symptoms (morphological phenotype) [1]: rapid and widespread leaf necrosis | Dev. leafWidth [1]: −2 | Dev. leafCurling [1]: 1 | Dev. leafTwisting [1]: 0 | Dev. matureLeafAnthocyanins [1]: 0 | Dev. matureLeafChlorosis [1]: 2 | Dev. matureLeafNecrosis [1]: 4 | Dev. newLeafAnthocyanins [1]: 0 | Dev. newLeafChlorosis [1]: 2 | Dev. newLeafNecrosis [1]: 4 | Dev. pointedLeaves [1]: 1 | Symptom Class [1]: 7 | Dev. tMic [1]: 1

O=C(O)c1ccccc1C(=O)Nc1cccc2ccccc12 [Naptalam]
Regulated Genes: Down (Arabidopsis thaliana [2]; [5]): 47 | Regulated Genes: Up (Arabidopsis thaliana [2]; [5]): 50 | No. of Lethal Genes Altered (Arabidopsis thaliana [2]): 3

CNc1cnn(-c2cccc(C(F)(F)F)c2)c(=O)c1Cl [Norflurazon]
stress related (commonly regulated) metabolites (Arabidopsis thaliana [3]): Only a few, if any

CC(C)C1(C)N=C(c2ncccc2C(=O)O)NC1=O (centres unmarked) [Imazapyr]
characteristic symptoms (morphological phenotype) [1]: anthocyanin accumulation in the older leaves accompanied by chlorosis of the newly emerging leaves | stress related (commonly regulated) metabolites (Arabidopsis thaliana [3]): Only a few, if any

O=C(O)COc1ccc(Cl)cc1Cl [2,4-D]
Dev. leafWidth [1]: −1 | Dev. leafCurling [1]: 1 | Dev. leafTwisting [1]: 2 | Dev. matureLeafAnthocyanins [1]: 1 | Dev. matureLeafChlorosis [1]: 2 | Dev. matureLeafNecrosis [1]: 0 | Dev. newLeafAnthocyanins [1]: 0 | Dev. newLeafChlorosis [1]: 1 | Dev. newLeafNecrosis [1]: 0 | Dev. pointedLeaves [1]: 0 | Symptom Class [1]: 5 | Dev. tMic [1]: 2

OC(Cn1cncn1)(Cn1cncn1)c1ccc(F)cc1F [Fluconazole]
Fold Change campesterol ([4]; GC): 0 | Fold Change desmosterol ([4]; GC): 0 | Fold Change octadecanoic acid ([4]; GC): 0.082 | Fold Change 4-methylcatechol ([4]; nLC): 0 | Fold Change 5hydroxyL-tryptophan ([4]; nLC): 0 | Fold Change 6-benzylaminopurine ([4]; nLC): 0 | Fold Change NacetylD-glucosamine ([4]; nLC): 0 | Fold Change NacetylL-ornithine ([4]; nLC): 0 | Fold Change abscisic acid ([4]; nLC): 0 | Fold Change adenine ([4]; nLC): 0 | Fold Change adenosine ([4]; nLC): 0 | Fold Change anthranilic acid ([4]; nLC): 0 | Fold Change argininosuccinate ([4]; nLC): 0 | Fold Change benzoic acid ([4]; nLC): 0 | Fold Change catechol ([4]; nLC): 0 | Fold Change cinnamic acid ([4]; nLC): 0 | Fold Change citricanoic/itaconi ([4]; nLC): 0 | Fold Change citrulline ([4]; nLC): 0 | Fold Change coumaric acid ([4]; nLC): 0 | Fold Change cytosine ([4]; nLC): 0 | Fold Change diaminopimelic acid ([4]; nLC): 0 | Fold Change dihydrofolic acid ([4]; nLC): 0 | Fold Change estrone ([4]; nLC): 0 | Fold Change farnesol ([4]; nLC): 0 | Fold Change folic acid ([4]; nLC): 0 | Fold Change gibberellic ([4]; nLC): 0 | Fold Change guanine ([4]; nLC): 0 | Fold Change histidine ([4]; nLC): 0 | Fold Change homogentisic/uric ([4]; nLC): 0 | Fold Change hydrocortisone ([4]; nLC): 0 | Fold Change indole3-pyruvic acid ([4]; nLC): 0 | Fold Change jasmonic acid ([4]; nLC): 0 | Fold Change kinetin ([4]; nLC): 0 | Fold Change luteolin ([4]; nLC): 0 | Fold Change malonic acid ([4]; nLC): 0 | Fold Change methionine ([4]; nLC): 0 | Fold Change orotic acid ([4]; nLC): 0 | Fold Change phenylpyruvic acid ([4]; nLC): 0 | Fold Change phosphoenolpyruvate ([4]; nLC): 0 | Fold Change pinitol ([4]; nLC): 0 | Fold Change porphobilinogen ([4]; nLC): 0 | Fold Change retinoic acid ([4]; nLC): 0 | Fold Change salicylic/HObenzoic ([4]; nLC): 0 | Fold Change shikimic acid ([4]; nLC): 0 | Fold Change sinapinic acid ([4]; nLC): 0 | Fold Change thymine ([4]; nLC): 0 | Fold Change urocanic acid ([4]; nLC): 0 | Fold Change xanthosine-DiH2O ([4]; nLC): 0 | Fold Change zeatin ([4]; nLC): 0 | Fold Change 4-aminobenzoic acid ([4]; pLC): 0 | Fold Change 4-methylcatechol ([4]; pLC): 0 | Fold Change 5hydroxyL-tryptophan ([4]; pLC): 0 | Fold Change 6benzylaminopurine ([4]; pLC): 0 | Fold Change NacetylD-glucosamine ([4]; pLC): 0 | Fold Change NacetylL-glutamate ([4]; pLC): 0 | Fold Change abscisic acid ([4]; pLC): 0 | Fold Change adenosine ([4]; pLC): 0 | Fold Change allantoic acid ([4]; pLC): 0 | Fold Change anthranilic acid ([4]; pLC): 0 | Fold Change argininosuccinate ([4]; pLC): 0 | Fold Change biotin ([4]; pLC): 0 | Fold Change caffeine ([4]; pLC): 0 | Fold Change citric acid TME ([4]; pLC): 0 | Fold Change cytidine ([4]; pLC): 0 | Fold Change cytosine ([4]; pLC): 0 | Fold Change diaminopimelic acid ([4]; pLC): 0 | Fold Change dihydrofolic acid ([4]; pLC): 0 | Fold Change dipicolinic acid ([4]; pLC): 0 | Fold Change folic acid ([4]; pLC): 0 | Fold Change glucosamine ([4]; pLC): 0 | Fold Change glucosamine6PO4 ([4]; pLC): 0 | Fold Change histidine ([4]; pLC): 0 | Fold Change hydrocortisone ([4]; pLC): 0 | Fold Change itaconic acid dimes ([4]; pLC): 0 | Fold Change kinetin ([4]; pLC): 0 | Fold Change luteolin ([4]; pLC): 0 | Fold Change niacinamide ([4]; pLC): 0 | Fold Change nopaline ([4]; pLC): 0 | Fold Change phosphoenolpyruvate ([4]; pLC): 0 | Fold Change progesterone ([4]; pLC): 0 | Fold Change riboflavin ([4]; pLC): 0 | Fold Change sugar-phosphate ([4]; pLC): 0 | Fold Change thiamine ([4]; pLC): 0 | Fold Change thymine ([4]; pLC): 0 | Fold Change tryptophan ([4]; pLC): 0 | Fold Change uric acid ([4]; pLC): 0 | Fold Change urocanic acid ([4]; pLC): 0 | Fold Change xanthosine (diH2O) ([4]; pLC): 0 | Fold Change zeatin ([4]; pLC): 0

COc1nc(C)nc(NC(=O)NS(=O)(=O)c2ccccc2Cl)n1 [Chlorsulfuron]
characteristic symptoms (morphological phenotype) [1]: anthocyanin accumulation in the older leaves accompanied by chlorosis of the newly emerging leaves | No. of Lethal Genes Altered (Arabidopsis thaliana [2]): 8

O=C(O)c1cc(Oc2ccc(C(F)(F)F)cc2Cl)ccc1[N+](=O)[O-] [Acifluorfen]
characteristic symptoms (morphological phenotype) [1]: Necrotic leaf flecks

CC(C)N1C(=O)c2ccccc2NS1(=O)=O [Bentazon]
characteristic symptoms (morphological phenotype) [1]: rapid and widespread leaf necrosis

COC(=O)NS(=O)(=O)c1ccc(N)cc1 [Asulam]
No. of Lethal Genes Altered (Arabidopsis thaliana [2]): 5

CC[C@@H]([C@H](C)O)n1ncn(-c2ccc(N3CCN(c4ccc(OC[C@@H]5CO[C@@](Cn6cncn6)(c6ccc(F)cc6F)C5)cc4)CC3)cc2)c1=O [Posaconazole]
Fold Change: 4-aminobenzoic acid ([4]; platform nLC): 0

c1cc[n+]2c(c1)-c1cccc[n+]1CC2 [Diquat]
characteristic symptoms (morphological phenotype) [1]: rapid and widespread leaf necrosis | Dev. leafWidth [1]: −2 | Dev. leafCurling [1]: 2 | Dev. leafTwisting [1]: 0 | Dev. matureLeafAnthocyanins [1]: 0 | Dev. matureLeafChlorosis [1]: 1 | Dev. matureLeafNecrosis [1]: 4 | Dev. newLeafAnthocyanins [1]: 0 | Dev. newLeafChlorosis [1]: 1 | Dev. newLeafNecrosis [1]: 4 | Dev. pointedLeaves [1]: 1 | Symptom Class [1]: 7 | Dev. tMic [1]: 2

CCc1cnc(C2=NC(C)(C(C)C)C(=O)N2)c(C(=O)O)c1 (centres unmarked) [Imazethapyr]
characteristic symptoms (morphological phenotype) [1]: anthocyanin accumulation in the older leaves accompanied by chlorosis of the newly emerging leaves

C[n+]1ccc(-c2cc[n+](C)cc2)cc1 [Paraquat]
characteristic symptoms (morphological phenotype) [1]: rapid and widespread leaf necrosis | Dev. leafWidth [1]: −1 | Dev. leafCurling [1]: 2 | Dev. leafTwisting [1]: 0 | Dev. matureLeafAnthocyanins [1]: 0 | Dev. matureLeafChlorosis [1]: 1 | Dev. matureLeafNecrosis [1]: 4 | Dev. newLeafAnthocyanins [1]: 0 | Dev. newLeafChlorosis [1]: 1 | Dev. newLeafNecrosis [1]: 4 | Dev. pointedLeaves [1]: 1 | Dev. tMic [1]: 2

CCNc1nc(Cl)nc(NC(C)C)n1 [Atrazine]
characteristic symptoms (morphological phenotype) [1]: rapid and widespread leaf necrosis
